This is an account of results in patent US8044069B2, “Compounds as calcium channel blockers” (Abbott Laboratories, priority 2008, dated 2011).

pIC50: −log10 of the molar value.

Sequence of human Cav2.2 (Q00975 whole entry): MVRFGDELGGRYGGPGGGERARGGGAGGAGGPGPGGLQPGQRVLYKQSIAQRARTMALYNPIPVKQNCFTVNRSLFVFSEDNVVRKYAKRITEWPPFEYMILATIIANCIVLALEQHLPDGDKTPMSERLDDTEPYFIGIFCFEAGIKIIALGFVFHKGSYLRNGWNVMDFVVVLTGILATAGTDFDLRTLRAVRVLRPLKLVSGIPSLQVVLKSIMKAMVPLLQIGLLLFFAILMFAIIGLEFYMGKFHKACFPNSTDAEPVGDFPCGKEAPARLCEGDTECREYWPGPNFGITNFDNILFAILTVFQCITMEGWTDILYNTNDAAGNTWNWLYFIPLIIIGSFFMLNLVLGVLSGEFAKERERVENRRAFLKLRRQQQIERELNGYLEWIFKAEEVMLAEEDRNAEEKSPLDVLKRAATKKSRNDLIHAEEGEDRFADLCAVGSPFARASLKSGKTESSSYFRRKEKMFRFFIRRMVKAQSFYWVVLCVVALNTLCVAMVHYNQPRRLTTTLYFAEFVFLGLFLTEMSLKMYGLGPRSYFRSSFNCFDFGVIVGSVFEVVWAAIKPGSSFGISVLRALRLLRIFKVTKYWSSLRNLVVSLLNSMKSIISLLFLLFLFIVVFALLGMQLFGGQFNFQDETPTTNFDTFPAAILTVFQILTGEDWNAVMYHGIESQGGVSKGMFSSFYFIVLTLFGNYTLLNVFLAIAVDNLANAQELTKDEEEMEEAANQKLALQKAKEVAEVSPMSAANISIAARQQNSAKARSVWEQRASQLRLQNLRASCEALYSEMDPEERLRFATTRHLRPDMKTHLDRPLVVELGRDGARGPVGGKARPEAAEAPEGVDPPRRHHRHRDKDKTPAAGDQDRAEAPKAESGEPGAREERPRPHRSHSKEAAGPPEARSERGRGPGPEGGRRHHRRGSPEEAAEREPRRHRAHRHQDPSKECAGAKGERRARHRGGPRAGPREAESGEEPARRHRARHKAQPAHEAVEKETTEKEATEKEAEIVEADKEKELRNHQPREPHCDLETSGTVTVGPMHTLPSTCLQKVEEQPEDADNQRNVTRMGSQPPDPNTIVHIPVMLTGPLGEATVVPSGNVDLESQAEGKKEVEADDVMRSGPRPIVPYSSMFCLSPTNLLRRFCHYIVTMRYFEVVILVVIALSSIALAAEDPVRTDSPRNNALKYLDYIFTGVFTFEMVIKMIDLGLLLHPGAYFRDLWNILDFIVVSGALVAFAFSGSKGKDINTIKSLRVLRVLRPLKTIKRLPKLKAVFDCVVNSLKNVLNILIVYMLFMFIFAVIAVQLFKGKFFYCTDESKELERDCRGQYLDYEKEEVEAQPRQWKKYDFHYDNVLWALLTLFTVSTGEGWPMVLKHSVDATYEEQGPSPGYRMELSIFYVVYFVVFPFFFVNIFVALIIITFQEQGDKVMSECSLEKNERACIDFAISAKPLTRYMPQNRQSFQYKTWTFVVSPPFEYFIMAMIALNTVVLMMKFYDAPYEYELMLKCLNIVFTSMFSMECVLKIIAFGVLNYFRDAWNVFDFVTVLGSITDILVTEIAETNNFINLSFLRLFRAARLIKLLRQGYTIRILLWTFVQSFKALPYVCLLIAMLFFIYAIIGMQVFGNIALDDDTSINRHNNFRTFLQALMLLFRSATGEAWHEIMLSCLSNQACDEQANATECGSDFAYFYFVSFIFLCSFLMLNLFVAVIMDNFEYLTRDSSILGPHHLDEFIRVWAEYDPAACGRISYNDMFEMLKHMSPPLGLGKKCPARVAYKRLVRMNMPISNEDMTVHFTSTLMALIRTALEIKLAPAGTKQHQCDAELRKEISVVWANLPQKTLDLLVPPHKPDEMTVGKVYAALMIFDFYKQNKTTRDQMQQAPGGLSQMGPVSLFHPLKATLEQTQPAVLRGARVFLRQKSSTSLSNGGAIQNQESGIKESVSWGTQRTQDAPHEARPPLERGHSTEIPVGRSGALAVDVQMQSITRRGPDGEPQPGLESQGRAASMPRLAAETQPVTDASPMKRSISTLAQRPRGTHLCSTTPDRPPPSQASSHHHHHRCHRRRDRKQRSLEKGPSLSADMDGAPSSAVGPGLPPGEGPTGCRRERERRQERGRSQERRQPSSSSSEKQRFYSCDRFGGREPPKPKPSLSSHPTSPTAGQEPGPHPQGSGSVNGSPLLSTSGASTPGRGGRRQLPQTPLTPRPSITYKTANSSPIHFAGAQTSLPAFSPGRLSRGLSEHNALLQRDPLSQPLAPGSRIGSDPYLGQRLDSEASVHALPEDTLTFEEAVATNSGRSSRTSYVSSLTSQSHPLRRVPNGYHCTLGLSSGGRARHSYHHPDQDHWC
Sequence of human Cav2.2 (P54289 25-951 partner limits assumed): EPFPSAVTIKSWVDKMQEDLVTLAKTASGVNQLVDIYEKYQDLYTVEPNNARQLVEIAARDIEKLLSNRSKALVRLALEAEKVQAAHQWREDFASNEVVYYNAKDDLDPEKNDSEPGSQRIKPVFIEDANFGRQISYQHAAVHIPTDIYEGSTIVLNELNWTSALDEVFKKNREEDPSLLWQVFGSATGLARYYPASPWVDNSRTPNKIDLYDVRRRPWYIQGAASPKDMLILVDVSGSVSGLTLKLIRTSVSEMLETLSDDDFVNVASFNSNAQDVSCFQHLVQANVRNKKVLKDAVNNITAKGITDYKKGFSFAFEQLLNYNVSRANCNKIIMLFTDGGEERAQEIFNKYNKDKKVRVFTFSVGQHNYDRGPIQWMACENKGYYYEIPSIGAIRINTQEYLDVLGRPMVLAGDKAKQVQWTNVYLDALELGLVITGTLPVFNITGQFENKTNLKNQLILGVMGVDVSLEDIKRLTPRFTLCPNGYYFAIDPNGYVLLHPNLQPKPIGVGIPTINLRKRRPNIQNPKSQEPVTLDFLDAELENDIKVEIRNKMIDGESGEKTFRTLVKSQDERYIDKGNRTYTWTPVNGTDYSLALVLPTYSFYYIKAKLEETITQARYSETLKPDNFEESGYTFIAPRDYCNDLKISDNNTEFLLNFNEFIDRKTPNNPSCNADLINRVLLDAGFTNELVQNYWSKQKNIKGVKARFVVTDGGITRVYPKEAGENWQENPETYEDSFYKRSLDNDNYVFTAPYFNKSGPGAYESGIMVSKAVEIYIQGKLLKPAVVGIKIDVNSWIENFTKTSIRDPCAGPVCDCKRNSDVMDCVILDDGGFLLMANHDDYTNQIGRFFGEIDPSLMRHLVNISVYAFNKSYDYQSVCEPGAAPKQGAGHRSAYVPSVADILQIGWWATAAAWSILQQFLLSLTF
Sequence of human Cav2.2 (P54289 952-1103 partner limits assumed): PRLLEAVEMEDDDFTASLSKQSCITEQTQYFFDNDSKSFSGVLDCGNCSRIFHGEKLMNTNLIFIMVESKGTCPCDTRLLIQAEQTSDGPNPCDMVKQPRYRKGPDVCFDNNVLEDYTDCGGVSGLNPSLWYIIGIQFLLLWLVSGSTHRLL
Sequence of human Cav2.2 (P54284 whole entry partner): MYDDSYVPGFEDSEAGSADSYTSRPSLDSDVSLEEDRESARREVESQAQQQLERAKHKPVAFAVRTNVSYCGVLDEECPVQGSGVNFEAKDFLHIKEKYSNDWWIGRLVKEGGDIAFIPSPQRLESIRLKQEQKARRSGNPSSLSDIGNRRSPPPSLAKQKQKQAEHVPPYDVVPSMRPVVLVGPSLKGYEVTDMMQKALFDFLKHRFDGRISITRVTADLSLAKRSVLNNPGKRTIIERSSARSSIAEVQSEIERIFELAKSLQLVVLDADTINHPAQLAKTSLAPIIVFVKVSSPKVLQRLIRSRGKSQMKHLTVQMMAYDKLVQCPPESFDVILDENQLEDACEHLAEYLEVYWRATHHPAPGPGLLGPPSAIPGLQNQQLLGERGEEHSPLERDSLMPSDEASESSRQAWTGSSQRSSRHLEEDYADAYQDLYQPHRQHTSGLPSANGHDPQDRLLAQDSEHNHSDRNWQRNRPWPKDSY

The assay addresses human Cav2.2 (Homo sapiens, UniProt Q00975). Put plainly: Assessment of calcium channel activity using FLIPR (Ca2+ influx in IMR32 cells). Format: cell-based. To be noted: IMR32 cells endogenously expressing human Cav2.2; 60 minute pre-incubation; 2 μM nifedipine; depolarized with 80 mM KCl, 5 mM CaCl2. The method, boiled down: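 IMR32 cells were dye-loaded and pre-incubated 60 min with compound (10 μM to 0.1 nM) in 1.3 mM CaCl2 plus 2 μM nifedipine to block L-type channels. Cells were then depolarized with 80 mM KCl while Ca2+ was raised to 5 mM, and FLIPR read the influx. IC50 came from a sigmoidal fit of % inhibition versus the no-inhibitor control.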
As to `O=C(CN1CCC(c2ccccc2)(c2ccccc2)C1=O)N1CCC(c2ccccc2)C1` (stereo not shown) [Example 21, 1-[2-oxo-2-(3-phenylpyrrolidin-1-yl)ethyl]-3,3-diphenylpyrrolidin-2-one], the negative logarithm of the IC50 (pIC50) (commonly the negative decadic logarithm of the IC50, by convention in mol/L) is 5.74.

Consider `O=C(CN1CCCC(c2ccccc2)(c2ccccc2)C1=O)N1CCC(Oc2ccc(Cl)cc2)CC1` [Example 158, 1-{2-[4-(4-chlorophenoxy)piperidin-1-yl]-2-oxoethyl}-3,3-diphenylpiperidin-2-one], for which the pIC50 is 5.39.

`COCc1cc(/C=C/c2ccccc2OCC(O)CN(C)CCN2CCC(c3ccc(F)cc3)(c3ccc(F)cc3)C2=O)on1` (stereo not shown) [Example 107, 3,3-bis(4-fluorophenyl)-1-{2-[[2-hydroxy-3-(2-{(E)-2-[3-(methoxymethyl)isoxazol-5-yl]vinyl}phenoxy)propyl](methyl)amino]ethyl}pyrrolidin-2-one]: the pIC50 was 5.73. As to `O=C(CN1CCC(c2ccc(F)cc2)C1=O)N1CCc2cc(Cl)ccc2C1` (stereo not shown) [Example 257, 1-[2-(6-chloro-3,4-dihydroisoquinolin-2(1H)-yl)-2-oxoethyl]-3-(4-fluorophenyl)pyrrolidin-2-one], the pIC50 was 5.21. Then `O=C(CN1CCC(c2ccccc2)(c2ccccc2)C1=O)N1CCC(c2ccc(F)cc2)(c2ccc(F)cc2)C1` [Example 203, 1-{2-[3,3-bis(4-fluorophenyl)pyrrolidin-1-yl]-2-oxoethyl}-3,3-diphenylpyrrolidin-2-one], with 5.67; and `O=C(CN1CCCC(c2ccccc2)(c2ccccc2)C1=O)NC1CN(C(c2ccccc2)c2ccccc2)C1` [Example 176, N-(1-benzhydrylazetidin-3-yl)-2-(2-oxo-3,3-diphenylpiperidin-1-yl)acetamide], with 5.99. The result for `O=C1[C@H](c2ccc(F)cc2)CCN1Cc1nc(-c2ccc(C(F)(F)F)cc2)no1` (single isomer, unassigned) [Example 236] reads 5.56; that for `O=C(CN1CCC(c2ccccc2)(c2ccccc2)C1=O)N1CCN(Cc2cccc(C(F)(F)F)c2)CC1` [Example 37, 1-(2-oxo-2-{4-[3-(trifluoromethyl)benzyl]piperazin-1-yl}ethyl)-3,3-diphenylpyrrolidin-2-one], 5.99. The result for `O=C(CN1CCC(c2ccccc2)(c2ccccc2)C1=O)N1CCN(Cc2cccc(C(F)(F)F)c2)C(=O)C1` [Example 29, 4-[(2-oxo-3,3-diphenylpyrrolidin-1-yl)acetyl]-1-[3-(trifluoromethyl)benzyl]piperazin-2-one] reads 5.94; that for `COc1cc(CN2CCN(CCCN3CCC(c4ccc(F)cc4)(c4ccc(F)cc4)C3=O)CC2)cc(OC)c1OC` [Example 110, 3,3-bis(4-fluorophenyl)-1-{3-[4-(3,4,5-trimethoxybenzyl)piperazin-1-yl]propyl}pyrrolidin-2-one], 5.83.

As for `O=C(CN1CCC(c2ccc(F)cc2)(c2ccc(F)cc2)C1=O)NC1CN(Cc2ccc(C(F)(F)F)c(F)c2)C1` [Example 239, 2-[3,3-bis(4-fluorophenyl)-2-oxopyrrolidin-1-yl]-N-{1-[3-fluoro-4-(trifluoromethyl)benzyl]azetidin-3-yl}acetamide], the pIC50 was 5.76. As to `O=C(CN1CCNC(c2ccccc2)C1=O)N1CCN(C(c2ccc(F)cc2)c2ccc(F)cc2)CC1` (stereo not shown) [Example 103, 1-(2-{4-[bis(4-fluorophenyl)methyl]piperazin-1-yl}-2-oxoethyl)-3-phenylpiperazin-2-one], the pIC50 is 4.97. Turning to `O=C1N(Cc2nc(-c3ccc(OC(F)(F)F)cc3)no2)CCCC1(c1ccccc1)c1ccccc1` [Example 199, 3,3-diphenyl-1-({3-[4-(trifluoromethoxy)phenyl]-1,2,4-oxadiazol-5-yl}methyl)piperidin-2-one], the negative logarithm of the IC50 (pIC50) was 5.22. Then `CN(CCN1CCC(c2ccc(F)cc2)(c2ccc(F)cc2)C1=O)CC(O)COc1cccc2ncccc12` (stereo not shown) [Example 108, 3,3-bis(4-fluorophenyl)-1-{2-[[2-hydroxy-3-(quinolin-5-yloxy)propyl](methyl)amino]ethyl}pyrrolidin-2-one], with 6.00. In the case of `COc1cc(OC)cc(OCCCN(C)CCN2CCC(c3ccc(F)cc3)(c3ccc(F)cc3)C2=O)c1` [Example 105, 1-{2-[[3-(3,5-dimethoxyphenoxy)propyl](methyl)amino]ethyl}-3,3-bis(4-fluorophenyl)pyrrolidin-2-one], the pIC50 is 5.78. Then `O=C(CN1CCC(c2ccccc2)(c2ccccc2)C1=O)NCc1nccs1` [Example 3, 2-(2-oxo-3,3-diphenylpyrrolidin-1-yl)-N-(1,3-thiazol-2-ylmethyl)acetamide], with 4.87; and `O=C(CN1CCC(c2ccccc2)(c2ccccc2)C1=O)Nc1cccc(C(F)(F)F)n1` [Example 247, 2-(2-oxo-3,3-diphenylpyrrolidin-1-yl)-N-[6-(trifluoromethyl)pyridin-2-yl]acetamide], with 5.35; and `COc1ccc(C2(c3ccc(OC)cc3)CCCN(CCCN(C)Cc3cc(OC)cc(OC)c3)C2=O)cc1` [Example 127, 1-{3-[(3,5-dimethoxybenzyl)(methyl)amino]propyl}-3,3-bis(4-methoxyphenyl)piperidin-2-one], with 5.82. The result for `O=C(CN1CCC(c2ccccc2)(c2ccccc2)C1=O)N1CCN(C(c2ccccc2)c2ccc(Cl)cc2)CC1` (stereo not shown) [Example 47, 1-(2-{4-[(4-chlorophenyl)(phenyl)methyl]piperazin-1-yl}-2-oxoethyl)-3,3-diphenylpyrrolidin-2-one] reads 6.00; that for `O=C(CN1CCCC(c2ccccc2)(c2ccccc2)C1=O)N1CCC(c2ccc(F)cc2)CC1` [Example 244, 1-{2-[4-(4-fluorophenyl)piperidin-1-yl]-2-oxoethyl}-3,3-diphenylpiperidin-2-one], 5.43; that for `O=C(CN1CCCC(c2ccccc2)(c2ccccc2)C1=O)N1CCC(C(O)(c2ccc(F)cc2)c2ccc(F)cc2)CC1` [Example 272, 1-(2-{4-[bis(4-fluorophenyl)(hydroxy)methyl]piperidin-1-yl}-2-oxoethyl)-3,3-diphenylpiperidin-2-one], 5.71. The result for `O=C(CN1CCCC(c2ccccc2)(c2ccccc2)C1=O)N1CCCC1c1ccc(F)cc1` (stereo not shown) [Example 73, 1-{2-[2-(4-fluorophenyl)pyrrolidin-1-yl]-2-oxoethyl}-3,3-diphenylpiperidin-2-one] reads 5.46; that for `O=C(CN1CCC(c2ccc(F)cc2)C1=O)N1Cc2ccc(C(F)(F)F)cc2C1` (single isomer, unassigned; (-)) [Example 265, (−)-3-(4-fluorophenyl)-1-{2-oxo-2-[5-(trifluoromethyl)-1,3-dihydro-2H-isoindol-2-yl]ethyl}pyrrolidin-2-one], 4.96. For the compound `COc1ccc(C2(c3ccc(OC)cc3)CCCN(CCN(C)CCc3ccc(OC)cc3OC)C2=O)cc1` [Example 126, 1-{2-[[2-(2,4-dimethoxyphenyl)ethyl](methyl)amino]ethyl}-3,3-bis(4-methoxyphenyl)piperidin-2-one], the pIC50 was 5.83. Then “N-(1-benzhydryl-3-methylpyrrolidin-3-yl)-2-(2-oxo-3,3-diphenylpiperidin-1-yl)acetamide [Example 86]”, with 5.66. The result for `COc1ccc(CCN(C)CCN2CCCC(c3ccccc3)(c3ccccc3)C2=O)cc1OC` [Example 118, 1-{2-[[2-(3,4-dimethoxyphenyl)ethyl](methyl)amino]ethyl}-3,3-diphenylpiperidin-2-one] reads 5.61; that for `CC1(NC(=O)CN2CCC(c3ccccc3)(c3ccccc3)C2=O)CCN(Cc2ccccc2)C1` (stereo not shown) [Example 40, N-(1-benzyl-3-methylpyrrolidin-3-yl)-2-(2-oxo-3,3-diphenylpyrrolidin-1-yl)acetamide], 5.68; that for `O=C(CN1CCC(c2ccccc2)(c2ccccc2)C1=O)N1CCN(C(c2ccccc2)c2ccc(F)cc2)CC1` (stereo not shown) [Example 46, 1-(2-{4-[(4-fluorophenyl)(phenyl)methyl]piperazin-1-yl}-2-oxoethyl)-3,3-diphenylpyrrolidin-2-one], 6.35. The result for `O=C1N(Cc2nc(-c3cccc(C(F)(F)F)c3)no2)CCCC1(c1ccccc1)c1ccccc1` [Example 179, 3,3-diphenyl-1-({3-[3-(trifluoromethyl)phenyl]-1,2,4-oxadiazol-5-yl}methyl)piperidin-2-one] reads 5.03; that for `O=C(CN1CCCC(c2ccccc2)(c2ccccc2)C1=O)N[C@@H]1CCN(Cc2cccc(C(F)(F)F)c2)C1` [Example 186, 2-(2-oxo-3,3-diphenylpiperidin-1-yl)-N-{(3R)-1-[3-(trifluoromethyl)benzyl]pyrrolidin-3-yl}acetamide], 5.86. On to `O=C(CN1CCCC(c2ccccc2)(c2ccccc2)C1=O)N1C[C@@H]2CCCN(C(c3ccccc3)c3ccccc3)[C@@H]2C1` [Example 88, 1-{2-[(4aS,7aS)-1-benzhydryloctahydro-6H-pyrrolo[3,4-b]pyridin-6-yl]-2-oxoethyl}-3,3-diphenylpiperidin-2-one], for which the pIC50 was 5.79. On to `O=C(CN1CCC(c2ccccc2)(c2ccccc2)C1=O)NCc1ccc(C(F)(F)F)nc1` [Example 2, 2-(2-oxo-3,3-diphenylpyrrolidin-1-yl)-N-{[6-(trifluoromethyl)pyridin-3-yl]methyl}acetamide], for which the negative logarithm of the IC50 (pIC50) is 5.28. The result for `CC(c1cccc(C(F)(F)F)c1)N1CCN(C(=O)CN2CCC(c3ccccc3)(c3ccccc3)C2=O)CC1` (stereo not shown) [Example 44, 1-[2-oxo-2-(4-{1-[3-(trifluoromethyl)phenyl]ethyl}piperazin-1-yl)ethyl]-3,3-diphenylpyrrolidin-2-one] reads 6.11; that for `O=C(CN1CCCC(c2ccccc2)(c2ccccc2)C1=O)NC1CCN(Cc2cccc(C(F)(F)F)c2)CC1` [Example 200, 2-(2-oxo-3,3-diphenylpiperidin-1-yl)-N-{1-[3-(trifluoromethyl)benzyl]piperidin-4-yl}acetamide], 6.00.
